In ChEMBL document CHEMBL5506020 (J Med Chem, 2024):
The source made the active and inactive calls. The calls are words filed in the database; no cut-off is given here.

What was measured:
MV4-11 [1] = assay: Downregulation of ZFP91 protein level in human MV4-11 cells at 10 nM incubated for 6 hrs by proteomic analysis; type: functional, cell-based
KG-1 = assay: Antiproliferative activity against human KG-1 cells upto 10 uM; type: functional, cell-based
[2] = Toxicity in NOD/SCID mouse xenografted with human MV4-11 cells assessed as effect on kidney at 2 to 5 mg/kg, ip administered every other day for 2 weeks by H and E staining based assay; type: organism-based; settings: in vivo, 336 h, dose 2-5 mg/kg
MV4-11 [3] = assay: Downregulation of TRIM24 protein level in human MV4-11 cells at 10 nM incubated for 6 hrs by proteomic analysis; type: functional, cell-based
MV4-11 [4] = assay: Antitumor activity against human MV4-11 cells xenografted in NOD-SCID mouse assessed as tumor growth inhibition at 2 mg/kg, ip administered every other day for 2 weeks; type: functional; settings: MV4-11, 336 h, read-out: TGI
MV4-11 [5] = assay: Antitumor activity against human MV4-11 cells xenografted in NOD-SCID mouse assessed as tumor growth inhibition at 5 mg/kg, ip administered every other day for 2 weeks; type: functional; settings: MV4-11, 336 h, read-out: TGI
[6] = Antiproliferative activity against human MOLM16 cells incubated for 72 hrs by Cell-Titer Glo assay; settings: MOLM16, 72 h
MV4-11 [7] = assay: Downregulation of IRF4 protein in human MV4-11 cells at 10 nM incubated for 6 hrs by proteomic analysis; type: functional, cell-based
MV4-11 [8] = assay: Downregulation of STAT2 protein in human MV4-11 cells at 10 nM incubated for 6 hrs by proteomic analysis; type: functional, cell-based
MV4-11 [9] = assay: Downregulation of BRD4 protein level in human MV4-11 cells at 10 nM incubated for 6 hrs by proteomic analysis; type: functional, cell-based
MV4-11 [10] = assay: Downregulation of STAT1 protein in human MV4-11 cells at 10 nM incubated for 6 hrs by proteomic analysis; type: functional, cell-based
Mus musculus [11] = assay: In vivo induction of p300 degradation in NOD/SCID mouse tumor xenografted with human MV4-11 cells at 2 to 5 mg/kg, ip administered every other day for 2 weeks by immunoblotting analysis; type: functional, organism-based; settings: dose 2-5 mg/kg
MV4-11 [12] = assay: Downregulation of CDK5 protein in human MV4-11 cells at 10 nM incubated for 6 hrs by proteomic analysis; type: functional, cell-based
[13] = Toxicity in NOD/SCID mouse xenografted with human MV4-11 cells assessed as lymphocyte infiltration in liver at 2 to 5 mg/kg, ip administered every other day for 2 weeks by H and E staining based assay; type: organism-based; settings: in vivo, 336 h, dose 2-5 mg/kg
MV4-11 [14] = assay: Downregulation of IKZF1 level in human MV4-11 cells at 10 uM incubated for 6 hrs by Western blotting analysis; type: functional, cell-based
MOLM-13 [15] = assay: Downregulation of c-Myc protein level in human MOLM-13 cells at 50 nM incubated for 24 hrs by Western blotting analysis; type: functional, cell-based
MOLM-13 [16] = assay: Antiproliferative activity against human MOLM-13 cells incubated for 72 hrs by Cell-Titer Glo assay; settings: MOLM-13, 72 h
MV4-11 [17] = assay: Downregulation of BRD3 protein level in human MV4-11 cells at 10 nM incubated for 6 hrs by proteomic analysis; type: functional, cell-based
MV4-11 [18] = assay: Downregulation of IKZF1 mRNA level in human MV4-11 cells at 100 nM incubated for 6 hrs by qRT-PCR analysis; type: functional, cell-based
MV4-11 [19] = assay: Downregulation of TP53RK protein in human MV4-11 cells at 10 nM incubated for 6 hrs by proteomic analysis; type: functional, cell-based
[20] = Toxicity in NOD/SCID mouse xenografted with human MV4-11 cells assessed as body weight loss at 2 to 5 mg/kg, ip administered every other day for 2 weeks; type: organism-based; settings: in vivo, 336 h, dose 2-5 mg/kg
Mus musculus [21] = assay: In vivo induction of CBP degradation in NOD/SCID mouse tumor xenografted with human MV4-11 cells at 2 to 5 mg/kg, ip administered every other day for 2 weeks by immunoblotting analysis; type: functional, organism-based; settings: dose 2-5 mg/kg
MV4-11 [22] = assay: Downregulation of BRD2 protein level in human MV4-11 cells at 10 nM incubated for 6 hrs by proteomic analysis; type: functional, cell-based
MV4-11 [23] = assay: Downregulation of GSPT1 protein level in human MV4-11 cells at 10 nM incubated for 6 hrs by proteomic analysis; type: functional, cell-based
THP-1 = assay: Antiproliferative activity against human THP-1 cells upto 10 uM; type: functional, cell-based
MV4-11 [24] = assay: Antiproliferative activity against human MV4-11 cells incubated for 120 hrs by Cell-Titer Glo assay; settings: MV4-11, 120 h
[25] = Toxicity in NOD/SCID mouse xenografted with human MV4-11 cells assessed as effect on lung at 2 to 5 mg/kg, ip administered every other day for 2 weeks by H and E staining based assay; type: organism-based; settings: in vivo, 336 h, dose 2-5 mg/kg
MV4-11 [26] = assay: Downregulation of KRAS protein in human MV4-11 cells at 10 nM incubated for 6 hrs by proteomic analysis; type: functional, cell-based
[27] = Toxicity in NOD/SCID mouse xenografted with human MV4-11 cells assessed as effect on heart at 2 to 5 mg/kg, ip administered every other day for 2 weeks by H and E staining based assay; type: organism-based; settings: in vivo, 336 h, dose 2-5 mg/kg
[28] = Toxicity in NOD/SCID mouse xenografted with human MV4-11 cells assessed as aggregation of multinucleated giant cells in spleen at 2 to 5 mg/kg, ip administered every other day for 2 weeks by H and E staining based assay; type: organism-based; settings: in vivo, 336 h, dose 2-5 mg/kg
MV4-11 [29] = assay: Downregulation of SMARCA4 protein level in human MV4-11 cells at 10 nM incubated for 6 hrs by proteomic analysis; type: functional, cell-based
EOL1 = assay: Antiproliferative activity against human EOL1 cells upto 10 uM; type: functional, cell-based
MV4-11 [30] = assay: Downregulation of CBP mRNA level in human MV4-11 cells at 100 nM incubated for 6 hrs by qRT-PCR analysis; type: functional, cell-based
MV4-11 [31] = assay: Downregulation of c-Myc protein level in human MV4-11 cells at 50 nM incubated for 24 hrs by Western blotting analysis; type: functional, cell-based
MOLM-16 = assay: Downregulation of c-Myc protein level in human MOLM16 cells at 50 nM incubated for 24 hrs by Western blotting analysis; type: functional, cell-based
MV4-11 [32] = assay: Downregulation of p300 mRNA level in human MV4-11 cells at 100 nM incubated for 6 hrs by qRT-PCR analysis; type: functional, cell-based
[33] = Toxicity in NOD/SCID mouse xenografted with human MV4-11 cells assessed as body weight loss at 5 mg/kg, ip administered every other day for 2 weeks; type: organism-based; settings: in vivo, 336 h
[34] = Toxicity in NOD/SCID mouse xenografted with human MV4-11 cells assessed as effect on kidney at 5 mg/kg, ip administered every other day for 2 weeks by H and E staining based assay; type: organism-based; settings: in vivo, 336 h
[35] = Toxicity in NOD/SCID mouse xenografted with human MV4-11 cells assessed as effect on heart at 5 mg/kg, ip administered every other day for 2 weeks by H and E staining based assay; type: organism-based; settings: in vivo, 336 h
MV4-11 [36] = assay: Downregulation of p300 protein level in human MV4-11 cells assessed as fold decrease at 10 nM incubated for 6 hrs by proteomic blotting analysis; type: functional, cell-based
[37] = Toxicity in NOD/SCID mouse xenografted with human MV4-11 cells assessed as lymphocyte infiltration in liver at 5 mg/kg, ip administered every other day for 2 weeks by H and E staining based assay; type: organism-based; settings: in vivo, 336 h
Mus musculus [38] = assay: In vivo induction of CBP degradation in NOD/SCID mouse tumor xenografted with human MV4-11 cells at 5 mg/kg, ip administered every other day for 2 weeks by immunoblotting analysis; type: functional, organism-based
[39] = Toxicity in NOD/SCID mouse xenografted with human MV4-11 cells assessed as effect on lung at 5 mg/kg, ip administered every other day for 2 weeks by H and E staining based assay; type: organism-based; settings: in vivo, 336 h
[40] = Toxicity in NOD/SCID mouse xenografted with human MV4-11 cells assessed as aggregation of multinucleated giant cells in spleen at 5 mg/kg, ip administered every other day for 2 weeks by H and E staining based assay; type: organism-based; settings: in vivo, 336 h

SMILES | Activity (MV4-11 [1]) | Activity (KG-1) | Activity (MV4-11 [3]) | inhibition in vivo at 5 mg/kg (MV4-11 [5]) [%] | IC50 [6] [nM] | Activity (MV4-11 [7]) | Activity (MV4-11 [8]) | Activity (MV4-11 [9]) | Activity (MV4-11 [10]) | Activity (MV4-11 [12]) | Activity (MV4-11 [14]) | Activity (MOLM-13 [15]) | IC50 (MOLM-13 [16]) [nM] | Activity (MV4-11 [17]) | Activity (MV4-11 [18]) | Activity (MV4-11 [19]) | Activity (MV4-11 [22]) | Activity (MV4-11 [23]) | Activity (THP-1) | IC50 (MV4-11 [24]) [nM] | also measured
Cc1noc(C)c1-c1ccc2c(c1)nc([C@@H]1CCCC(=O)N1c1ccc(F)c(F)c1)n2C1CCN(CC(=O)Nc2ccc(-c3ccc(CNc4cccc5c4C(=O)N(C4CCC(=O)NC4=O)C5=O)cc3)nc2)CC1 (stereo partly specified) | inactive | inactive | inactive | 88 | 4.6 | Active | Active | inactive | Active | Active | Active | Active | 26.9 | inactive | Active | Active | inactive | inactive | inactive | 1.8 | Activity [2]: Non-Toxic; inhibition in vivo at 2 mg/kg (MV4-11 [4]): 53%; Activity (Mus musculus [11]): Active; Activity [13]: Toxic; Activity [20]: Non-Toxic; Activity (Mus musculus [21]): Active; Activity [25]: Non-Toxic; Activity (MV4-11 [26]): Active; Activity [27]: Non-Toxic; Activity [28]: Toxic; Activity (MV4-11 [29]): inactive; Activity (EOL1): inactive; Activity (MV4-11 [30]): inactive; Activity (MV4-11 [31]): Active; Activity (MOLM-16): Active; Activity (MV4-11 [32]): inactive
Cc1noc(C)c1-c1ccc2c(c1)nc([C@@H]1CCCC(=O)N1c1ccc(F)c(F)c1)n2C1CCN(CC(=O)Nc2cnc(-c3ccc(CNc4cccc5c4C(=O)N(C4CCC(=O)NC4=O)C5=O)cc3)nc2)CC1 (stereo partly specified) | inactive | inactive | inactive | 93 | 5.5 | Active | Active | inactive | Active | Active | Active | Active | 47 | inactive | Active | Active | inactive | inactive | inactive | 0.9 | Activity [33]: Non-Toxic; Activity [34]: Non-Toxic; Activity [35]: Non-Toxic; Activity (MV4-11 [36]): inactive; Activity [37]: Toxic; Activity (Mus musculus [38]): Active; Activity [39]: Non-Toxic; Activity [40]: Toxic; Activity (MV4-11 [26]): Active; Activity (MV4-11 [29]): inactive; Activity (EOL1): inactive; Activity (MV4-11 [30]): inactive; Activity (MV4-11 [31]): Active; Activity (MOLM-16): Active; Activity (MV4-11 [32]): inactive
